| Compound | melting point |
| --- | --- |
| CCc1ccc(-c2ccc3c(c2)C=C(C(=O)Nc2ccc(CN(C)C4CCOCC4)cc2)CCO3)cc1 [Compound 177, N-[4-[N-methyl-N-(tetrahydropyran-4-yl)aminomethyl]phenyl]-7—(4-ethylphenyl)-2,3-dihydro-1-benzoxepine-4-carboxamide] | 181 to 182 °C |
| CN(Cc1ccc(NC(=O)C2=Cc3cc(-c4ccc(C(C)(C)C)cc4)ccc3OCC2)cc1)C1CCOCC1 [Compound 179, N-[4-[N-methyl-N-(tetrahydropyran-4-yl)aminomethyl]phenyl]-7—(4-tert-butylphenyl)-2,3-dihydro-1-benzoxepine-4-carboxamide] | 193 to 194 °C |
| CN(Cc1ccc(NC(=O)C2=Cc3cc(-c4ccc(Cl)cc4)ccc3OCC2)cc1)C1CCOCC1 [Compound 181, N-[4-[N-methyl-N-(tetrahydropyran-4-yl)aminomethyl]-phenyl]-7—(4-chlorophenyl)-2,3-dihydro-1-benzoxepine-4-carboxamide] | 191 to 192 °C |
| CCOc1ccc(-c2ccc3c(c2)C=C(C(=O)Nc2ccc(CN(C)C4CCOCC4)cc2)CCO3)cc1 [Compound 185, 7—(4-ethoxyphenyl)-N-(4-[N-methyl-N-(tetrahydropyran-4-yl)aminomethyl]phenyl]-2,3-dihydro-1-benzoxepine-4-carboxamide] | 174 to 176 °C |
| CN(Cc1ccc(NC(=O)C2=Cc3cc(-c4ccc(OC(F)(F)F)cc4)ccc3OCC2)cc1)C1CCOCC1 [Compound 186, N-[4-[N-methyl-N-(tetrahydropyran-4-yl)aminomethyl]phenyl]-7—(4-trifluoromethoxyphenyl)-2,3-dihydro-1-benzoxepine-4-carboxamide] | 187 to 188 °C |
| CCP(=O)(CC)Cc1ccc(NC(=O)/C=C/c2cccc(-c3ccc(C)cc3)c2)cc1 [Compound 187, (E)-N-(4-diethylphosphorylmethylphenyl)-3—(4-methylphenyl)cinnamamide] | 197 to 198 °C |
| Cc1ccc(-c2cccc(/C=C/C(=O)Nc3ccc(-c4ccccn4)cc3)c2)cc1 [Compound 188, (E)-N-[4—(2-pyridyl)phenyl]-3—(4-methylphenyl)cinnamamide] | 220 to 222 °C |
| Cc1ccc(-c2cccc(/C=C/C(=O)Nc3ccc(-c4cccc[n+]4[O-])cc3)c2)cc1 [Compound 189, (E)-N-[4—(1-oxidopyridin-2-yl)phenyl]-3—(4-methylphenyl)cinnamamide] | 240 to 241 °C |
| Cc1ccc(-c2cccc(/C=C/C(=O)Nc3ccc(Cc4ccccn4)cc3)c2)cc1 [Compound 190, (E)-N-[4—(2-pyridylmethyl)phenyl]-3—(4-methylphenyl)cinnamamide] | 169 to 171 °C |
| Cc1ccc(-c2cccc(/C=C/C(=O)Nc3ccc(Cc4cccc[n+]4[O-])cc3)c2)cc1 [Compound 191, (E)-N-[4—(1-oxidopyridin-2-ylmethyl)phenyl]-3—(4-methylphenyl)cinnamamide] | 183 to 185 °C |
| Cc1ccc(-c2cccc(/C=C/C(=O)Nc3ccc(-c4cccnc4)cc3)c2)cc1 [Compound 192, (E)-N-[4—(3-pyridyl)phenyl]-3—(4-methylphenyl)cinnamamide] | 213 to 214 °C |
| CCCP(=O)(CCC)Cc1ccc(NC(=O)/C=C/c2cccc(-c3ccc(C)cc3)c2)cc1 [Compound 194, (E)-N-(4-dipropylphosphorylmethylphenyl)-3—(4-methylphenyl)cinnamamide] | 225 to 227 °C |
| Cc1ccc(-c2ccc3c(c2)C=C(C(=O)Nc2ccc(Cc4cccc[n+]4[O-])cc2)CO3)cc1 [Compound 200, N-[4—(1-oxidopyridin-2-ylmethyl)phenyl]-6—(4-methylphenyl)-2H-1-benzopyran-3-carboxamide] | 261 to 263 °C |
| Cc1ccc(-c2ccc3c(c2)C=C(C(=O)Nc2ccc(C(O)c4ccccn4)cc2)C(C)O3)cc1 (stereo not drawn) [Compound 202, N-[4-[hydroxy(2-pyridyl)methyl]-phenyl]-6—(4-methylphenyl)-2-methyl-2H-1-benzopyran-3-carboxamide] | 202 to 205 °C |
| Cc1ccc(-c2ccc3c(c2)C=C(C(=O)Nc2ccc(C(O)c4cccc[n+]4[O-])cc2)C(C)O3)cc1 (stereo not drawn) [Compound 203, N-[4-[hydroxy(1-oxidopyridin-2-yl)-methyl]phenyl]-6—(4-methylphenyl)-2-methyl-2H-1-benzopyran-3-carboxamide] | 230 to 232 °C |
| Cc1ccc(-c2csc(/C=C/C(=O)Nc3ccc(CN(C)C4CCOCC4)cc3)c2)cc1 [Compound 212, (E)-N-[4-[N-methyl-N-(tetrahydropyran-4-yl)aminomethyl]-phenyl)-3-[4—(4-methylphenyl)thiophen-2-yl]acrylamide] | 188 to 190 °C |
| Cc1ccc(-c2cc3c(s2)CCCC(C(=O)Nc2ccc(CN(C)C4CCOCC4)cc2)=C3)cc1 [Compound 214, N-[4-[N-methyl-N-(tetrahydropyran-4-yl)aminomethyl]-phenyl]-2—(4-methylphenyl)-7,8-dihydro-6H-cyclohepta-[b]thiophene-5-carboxamide] | 201 to 203 °C |

| Compound | melting point |
| --- | --- |
| Cc1ccc(-c2ccc3nc(C)c(C(=O)Nc4ccc(CN(C)C5CCOCC5)cc4)cc3c2)cc1 [Compound 216, N-[4-[N-methyl-N-(tetrahydropyran-4-yl)aminomethyl]phenyl]-6—(4-methylphenyl)-2-methylquinoline-3-carboxamide] | 157 to 160 °C |
| O=C(Nc1cccc(CN2CCCCC2)c1)C1=Cc2cc(-c3ccccc3)ccc2CC1 [Compound 217, 7-phenyl-N-[3—(piperidinomethyl)phenyl]-3,4-dihydronaphthalene-2-carboxamide] | 152 to 153 °C |
| CSc1ccc(-c2ccc3c(c2)C=C(C(=O)Nc2ccc(CN(C)C4CCOCC4)cc2)CCO3)cc1 [Compound 226, N-[4-[N-methyl-N-(tetrahydropyran-4-yl)aminomethyl]-phenyl]-7—(4-methylthiophenyl)-2,3-dihydro-1-benzoxepine-4-carboxamide] | 180 to 186 °C |
| Cc1ccc(-c2ccc3c(c2)C=C(C(=O)Nc2ccc(C[N+](C)(C)CCCO)cc2)CCO3)cc1.[I-] [Compound 240, dimethyl-3-hydroxypropyl-(N-(7-(4-methylphenyl)-2,3-dihydro-1-benzoxepin-4-carbonyl)-4-aminobenzyl)ammonium iodide] | 216 to 219 °C |
| Cc1ccc(-c2ccc3c(c2)C=C(C(=O)Nc2ccc(C[N+](C)(C)C4CCOCC4)cc2)CCS3)cc1.[I-] [Compound 241, dimethyl-(N-(7-(4-methylphenyl)-2,3-dihydro-1-benzothiepine-4-carbonyl)-4-aminobenzyl)-N-(4-tetrahydropyranyl)ammonium iodide] | 220 to 222 °C (dec.) |
| Cc1ccc(-c2ccc3c(c2)C=C(C(=O)Nc2ccc(CP4(=O)CCCCC4)cc2)CCC3)cc1 [Compound 252, 2-(4-methylphenyl)-N-(4-((1-oxophosphorinane-1-yl)methyl)phenyl)-6,7-dihydro-5H-benzocycloheptene-8-carboxamide] | 282 to 283 °C (dec.) |
| CN(Cc1ccc(NC(=O)C2=Cc3cc(-c4ccc(S(C)(=O)=O)cc4)ccc3OCC2)cc1)C1CCOCC1 [Compound 273, 7-(4-methylsulfonylphenyl)-N-[4-[N-methyl-N-(tetra-hydropyran-4-yl)aminomethyl]phenyl]-2,3-dihydro-1-benzoxepine-4-carboxamide] | 233 to 235 °C |
| CC(C)c1ccc(-c2ccc(/C=C/C(=O)Nc3ccc(CN(C)C4CCOCC4)cc3)s2)cc1 [Compound 274, (E)-3-[5-(4-isopropylphenyl)thiophen-2-yl]-N-[4-[N-methyl-N-(tetrahydropyran-4-yl)aminomethyl]-phenyl]acrylamide] | 187 to 189 °C |
| CN(Cc1ccc(NC(=O)/C=C/c2ccc(-c3ccc(C(C)(C)C)cc3)s2)cc1)C1CCOCC1 [Compound 276, (E)-3-[5-(4-tert-butylphenyl)thiophen-2-yl]-N-[4-[N-methyl-N-(tetrahydropyran-4-yl)aminomethyl]phenyl]acrylamide] | 216 to 220 °C |
| Cc1ccc(-c2cc3ccc(C(=O)Nc4ccc(CN(C)C5CCOCC5)cc4)cc3o2)cc1 [Compound 278, 2-(4-methylphenyl)-N-[4-[N-methyl-N-(tetrahydropyran-4-yl)aminomethyl]phenyl]benzofuran-6-carboxamide] | 224 to 227 °C |
| COc1ccc(-c2ccc3c(c2)C=C(C(=O)Nc2ccc(CN(C)C4CCOCC4)cc2)CCS3)cc1 [Compound 282, 7-(4-methoxyphenyl)-N-[4-[N-methyl-N-(tetrahydropyran-4-yl)aminomethyl]phenyl]-2,3-dihydro-1-benzothiepine-4-carboxamide] | 162 to 164 °C |
| COc1ccc(-c2ccc3c(c2)C=C(C(=O)Nc2ccc(CN(C)C4CCC5(CC4)OCCO5)cc2)CCS3)cc1 [Compound 283, N-[4-[N-(4,4-ethylenedioxy-cyclohexyl)-N-methylaminomethyl]phenyl]-7-(4-methoxy-phenyl)-2,3-dihydro-1-benzothiepine-4-carboxamide] | 198 to 201 °C |
| COc1ccc(-c2ccc3c(c2)C=C(C(=O)Nc2ccc(CN(C)C4CCC(=O)CC4)cc2)CCS3)cc1 [Compound 284, 7-(4-methoxyphenyl)-N-[4-[N-methyl-N-(4-oxocyclohexyl)aminomethyl]phenyl]-2,3-dihydro-1-benzothiepine-4-carboxamide] | 133 to 139 °C |
| CN(Cc1ccc(NC(=O)C2=Cc3cc(-c4ccc(N5CCOCC5)cc4)ccc3SCC2)cc1)C1CCOCC1 [Compound 285, N-[4-[N-methyl-N-(tetrahydropyran-4-yl)aminomethyl]phenyl]-7-(4-morpholinophenyl)-2,3-dihydro-1-benzothiepine-4-carboxamide] | 255 to 259 °C |
| CN(Cc1ccc(NC(=O)C2=Cc3cc(-c4ccc5c(c4)OCO5)ccc3SCC2)cc1)C1CCOCC1 [Compound 286, 7-(3,4-methylenedioxyphenyl)-N-[4-[N-methyl-N-(tetrahydropyran-4-yl)aminomethyl]phenyl]-2,3-dihydro-1-benzothiepine-4-carboxamide] | 193 to 194 °C |
| CCOc1ccc(-c2ccc3c(c2)C=C(C(=O)Nc2ccc(CN(C)C4CCC5(CC4)OCCO5)cc2)CCO3)cc1 [Compound 287, 7-(4-ethoxyphenyl)-N-[4-[N-(4,4-ethylenedioxycyclohexyl)-N-methylaminomethyl]-phenyl]-2,3-dihydro-1-benzoxepine-4-carboxamide] | 172 to 174 °C |
